According to the NIST ThermoML archive (doi:10.1016/j.jct.2010.03.002):
Numbers after ± are expanded uncertainties.

Experiment: xn = mol fraction of the nth substance listed
Settings: 101 kPa, Liquid; for viscosity: Capillary tube (Ostwald / Ubbelohde) method; for mass density: Vibrating tube method

CCCCCCn1cc[n+](C)c1.[Br-] [3-hexyl-1-methyl-1H-imidazolium bromide] + O
Settings	mass density, 293.15 K [kg/m3]	mass density, 303.15 K [kg/m3]	mass density, 313.15 K [kg/m3]	mass density, 323.15 K [kg/m3]	mass density, 333.15 K [kg/m3]	viscosity, 293.15 K [mPa·s]	viscosity, 303.15 K [mPa·s]	viscosity, 313.15 K [mPa·s]	viscosity, 323.15 K [mPa·s]	viscosity, 333.15 K [mPa·s]
x2 = 0	1227.4 ± 1.7	1220.1 ± 1.7	1213.3 ± 1.7	1205.7 ± 1.7	1198.6 ± 1.6	6936 ± 750	2239 ± 200	851.65 ± 56	512.14 ± 27	350.69 ± 16
x2 = 0.1225	1223.4 ± 1.4	1216.1 ± 1.4	1209.3 ± 1.3	1201.8 ± 1.3	1194.6 ± 1.3	3519 ± 330	1255 ± 94	503.66 ± 27	302.69 ± 13	201.69 ± 6.7
x2 = 0.2196	1220.4 ± 1.1	1213.2 ± 1.1	1206.4 ± 1.1	1198.8 ± 1.1	1191.5 ± 1.1	1578 ± 120	695.45 ± 42	320.14 ± 14	180.56 ± 5.7	115.66 ± 2.6
x2 = 0.2978	1217.9 ± 1	1210.8 ± 1	1204 ± 0.9	1196.2 ± 0.9	1189 ± 0.9	776.62 ± 48	395.49 ± 19	194.1 ± 6.6	117.64 ± 2.7	77.41 ± 1.2
x2 = 0.348	1216.3 ± 0.9	1209 ± 0.9	1202.2 ± 0.8	1194.6 ± 0.8	1187.4 ± 0.8	507.8 ± 27	265.62 ± 11	143.5 ± 3.9	89.65 ± 1.6	57.52 ± 0.74
x2 = 0.4166	1213.4 ± 0.7	1206.2 ± 0.7	1199.5 ± 0.7	1192 ± 0.7	1184.8 ± 0.7	313.52 ± 13	168.31 ± 5.1	97.98 ± 1.9	60.85 ± 0.76	40.03 ± 0.5
x2 = 0.504	1208.7 ± 0.6	1201.6 ± 0.6	1194.9 ± 0.6	1187.5 ± 0.6	1180.3 ± 0.6	173.73 ± 5.2	98.93 ± 2	60.18 ± 0.75	38.59 ± 0.46	26.69 ± 0.31
x2 = 0.5701	1203.9 ± 0.5	1196.8 ± 0.5	1190.1 ± 0.5	1182.7 ± 0.5	1175.8 ± 0.5	111.42 ± 2.3	65.77 ± 0.89	41.24 ± 0.49	27.69 ± 0.3	19.36 ± 0.21
x2 = 0.6405	1196.9 ± 0.4	1189.9 ± 0.4	1183.3 ± 0.4	1176 ± 0.4	1169 ± 0.4	70.83 ± 0.91	43.45 ± 0.53	28.14 ± 0.31	19.39 ± 0.19	14.63 ± 0.15
x2 = 0.7285	1184.3 ± 0.3	1177.3 ± 0.3	1170.7 ± 0.3	1163.5 ± 0.3	1156.5 ± 0.3	36.4 ± 0.45	22.54 ± 0.26	15.13 ± 0.16	10.75 ± 0.1	7.929 ± 0.067
x2 = 0.816	1163.7 ± 0.2	1156.9 ± 0.2	1150.1 ± 0.2	1142.9 ± 0.2	1136.3 ± 0.2	18.13 ± 0.2	12.1 ± 0.13	8.492 ± 0.076	–	4.762 ± 0.058
x2 = 0.9048	1123.6 ± 0.2	1117.3 ± 0.2	1110.7 ± 0.2	1104.4 ± 0.2	1097.6 ± 0.2	6.655 ± 0.059	4.764 ± 0.047	3.519 ± 0.033	2.744 ± 0.025	2.184 ± 0.02
x2 = 0.9241	1109.4 ± 0.2	1103.6 ± 0.2	1097 ± 0.2	1090.9 ± 0.1	1084.2 ± 0.1	4.951 ± 0.046	3.619 ± 0.035	2.764 ± 0.025	2.165 ± 0.019	1.733 ± 0.016
x2 = 0.944	1091.2 ± 0.1	1085.4 ± 0.1	1079.5 ± 0.1	1073.6 ± 0.1	1067.2 ± 0.1	3.48 ± 0.032	2.622 ± 0.023	–	1.6 ± 0.016	1.301 ± 0.012
x2 = 0.9613	1070.9 ± 0.1	1065.7 ± 0.1	1060.4 ± 0.1	1054.7 ± 0.1	1048.5 ± 0.1	2.438 ± 0.023	1.86 ± 0.017	1.469 ± 0.012	–	0.982 ± 0.013
x2 = 0.9899	1022.6 ± 0.1	1019.2 ± 0.1	1015.1 ± 0.1	1010.1 ± 0.1	1004.2 ± 0.1	1.342 ± 0.014	1.047 ± 0.01	0.846 ± 0.008	0.695 ± 0.006	0.588 ± 0.006
